“Also recorded” adds a separate entry of the source.
Experiments:
[1] = Wilson et al. 2019; cited from earlier work
[2] = system: late stage mCRPC; conditions: late stage mCRPC patients, versus 11.3 months with standard therapy; Sartor et al., 2021; cited from earlier work
[3] = system: PSMA- (PC3); assay: Cell viability (Alamar Blue), monotherapy, PSMA- cells; type: cell-based; conditions: PC3, 20 µM, 72h, pretreated with 10 mM GSH; read-out: cell viability compared to untreated cells
Procedure: (§1) Black, clear-bottom 96 well culture plates were coated with poly-L-lysine. Afterwards, the plates were washed with PBS (1 × 100 µL), cells were seeded (2000 cells/well for PC3, 10000 cells/well for LNCaP), and cultured for 24 h (PC3) or 48 h (LNCaP) at 37 °C. The culture medium was removed, and new culture medium containing 10 mM GSH-OEt was added and incubated for 1 h at 37 °C. After removal of the GSH-OEt medium, new culture medium containing the PSMA-Ruc conjugates was added. After 72 h of incubation at 37 °C, cells were treated with Alamar Blue for visualization of cell viability. […] Each data points represents one biological replicate.

[4] = system: PSMA+ (LNCaP); assay: Cell viability (Alamar Blue), monotherapy, PSMA+ cells; type: cell-based; conditions: 72h
Procedure: as §1

[5] = system: mCRPC; conditions: TRITON2 trial, Abida et al., 2020; cited from earlier work
[6] = system: PC3-PIP cells / PC3-flu cells; assay: Fluorescence microscopy of Ruc delivery in PSMA+ and PSMA- cells; type: cell-based; conditions: PSMA+ PC3-PIP versus PSMA- PC3-flu cells (Figure 4A)
Procedure: For microscopic analysis, black clear-bottom 96 well cell culture plates with cover-glass bottom (µ plate 96 well black; ibidi) were coated with poly-L-lysine (0.01% (w/v) in sterile water). Cells were seeded at a density of 20-40,000 cells/well and cultured for 24 h at 37 °C. Subsequently, the PSMA ligands (1 µM; 100 µL/well) were directly added with or without blocking and ligand treatment was accomplished for 5, 60 or 180 min at 37 °C, while in case of GSH preincubation, GSH-OEt (10 mM; 100 µL/well) was applied for 1 h at 37 °C prior to ligand treatment. For the latter case, the PSMA ligands (1 µM, 100 µL/well) were added after removal of the GSH containing medium and the incubation time was 60 min at 37 °C. Afterwards, cells were washed with PBS (2×) and fixed with 4% (w/v) PFA in PBS for 8 min at RT (pH 7.4, 100 µL/well). CellMask™ Green Plasma Membrane Stain was used to stain the cell membrane, whereas for cell nuclei DRAQ5™ was used. Before imaging, cells were washed with PBS (3×) and mounted in PBS (150 µL/well). Finally, cells were imaged using an EVOS M7000 microscope (Thermo Fisher Scientific).

[7] = Serum stability; type: in vitro ADME; conditions: 37 °C
Procedure: For serum stability analysis, 13.5 µL human serum were mixed with 1.5 µL of an aqueous solution of the test compound (200 µM final concentration) and incubated at 37 °C for 0.5, 1, 2, and 24 h, respectively. Afterwards, 25.0 µL MeCN were added, the suspension was centrifuged (14,000 rpm, 30 min, 4 °C), the supernatant was recovered, and finally analyzed by HPLC-ESI-MS using a linear elution gradient from 10 to 95% (v/v) MeCN/0.1% (v/v) TFA in water/0.1% (v/v) TFA for 15 min.

[8] = target: T1, PSMA (Homo sapiens, UniProt Q04609); assay: IC50 determination by competition with [68Ga]-PSMA-617 on LNCaP cells; type: binding; conditions: [68Ga]-PSMA-617 0.4 nM, 60 min on ice, natGa-labelled ligands
T1 construct: endogenous in cells; host or cells: LNCaP cells
Procedure: In the meantime, dilution series of the compounds were prepared in 1% BSA (w/v)/HBSS in a separate 96 U-bottom deep well plate ranging from 12 µM to 153.6 pM in 1:5 dilution steps. Next, solutions (25 µL/well) of either 1% BSA (w/v)/HBSS (control) or of the respective dilution series were transferred to the LNCaP cells containing plate. Hereby, each concentration was pipetted in triplicates and each experiment was repeated three times. Subsequently, [^68Ga]-PSMA-617 (25 µL/well; 0.4 nM final concentration; AM = 26-30 MBq/nmol) in 1% BSA (w/v)/HBSS was added to all wells and the plate was incubated for 60 min on ice. Afterwards, the experiment was terminated by centrifugation at 600 g for 3 min and removal of the supernatant. The cells were then washed with ice-cold HBSS (150 µL/well), centrifuged (600 g, 3 min), and the supernatant as well as the washing fraction were combined, representing the amount of free, unbound radioligand. Bound radioligand was obtained by lysis of the cells with 1.0 N NaOH (150 µL/well; 10 min on ice). Afterwards, the plate was washed a second time with 1.0 N NaOH (150 µL/well). Hereby, the washing step was combined with the NaOH fraction. The quantification of bound and free radioligand was finally accomplished via measuring the samples in a γ-counter.

[9] = system: LNCaP cells; assay: Binding and internalization (cell uptake) of 68Ga-labelled PSMA ligands in LNCaP cells; type: cell-based
Procedure: To determine ligand internalization, LNCaP cells were seeded in a 96 V-bottom well plate at a density of 100,000 cells/well in 5% BSA (w/v)/RPMI medium (100 µL/well) and incubated for 30 min at 37 °C. Afterwards, solutions (25 µL/well) of either 5% BSA (w/v)/RPMI medium or of 2-PMPA (final concentration: 10 µM) in 5% BSA (w/v)/RPMI medium for blockade were added. Then, a solution of the ^68Ga-labeled PSMA-ligand (25 µL/well; 0.4 nM final concentration; AM = 26-30 MBq/nmol) was added to all wells, and the cells were incubated for 5, 15, 30, and 60 min, respectively, at 37 °C. Hereby, each time point was performed in triplicates and each experiment was repeated three times. The internalization process was terminated by placing the plate for 5 min on ice. The free radioligand was obtained by centrifugation of the plate at 600 g for 3 min and removal of the supernatant. Each well was then washed with ice-cold PBS and the fractions of the first two steps were combined. For removal of cell-bound PSMA-ligand, the cells were treated in a next step with ice-cold 2-PMPA-solution (10 µM in PBS; 150 µL/well; 15 min on ice), centrifuged (600 g, 3 min), and washed with ice-cold PBS (150 µL/well). The fractions were again combined. For the analysis of internalized radioligand, the fractions of a 1.0 N NaOH (150 µL/well; 10 min on ice) treatment as well as a concomitant washing step with 1.0 N NaOH (150 µL/well) were pooled. Free, surface bound, and internalized activity, respectively, was measured in a γ-counter.

[10] = Lipophilicity, n-octanol/PBS distribution coefficient; type: physicochemical; conditions: pH 7.4
Procedure: Lipophilicity of the conjugates was determine after radiolabeling with ^68Ga. The PSMA ligand (0.80 MBq) was dissolved in PBS (500 µL/pH 7.4) in a reaction vial (1.5 mL; n = 10). Afterwards, n-octanol was added (500 µL) and the mixture was rigorously vortexed for 3 min. Subsequent centrifugation (Biofuge 15, Heraus Sepatech, Osterode, Germany) at 13,000 rpm for 5 min led to a phase separation. After measuring 100 µL of each phase in a γ-counter, the distribution coefficient (logD(O/PBS)) was calculated with Microsoft Excel.

T1 sequence (Q04609 whole entry): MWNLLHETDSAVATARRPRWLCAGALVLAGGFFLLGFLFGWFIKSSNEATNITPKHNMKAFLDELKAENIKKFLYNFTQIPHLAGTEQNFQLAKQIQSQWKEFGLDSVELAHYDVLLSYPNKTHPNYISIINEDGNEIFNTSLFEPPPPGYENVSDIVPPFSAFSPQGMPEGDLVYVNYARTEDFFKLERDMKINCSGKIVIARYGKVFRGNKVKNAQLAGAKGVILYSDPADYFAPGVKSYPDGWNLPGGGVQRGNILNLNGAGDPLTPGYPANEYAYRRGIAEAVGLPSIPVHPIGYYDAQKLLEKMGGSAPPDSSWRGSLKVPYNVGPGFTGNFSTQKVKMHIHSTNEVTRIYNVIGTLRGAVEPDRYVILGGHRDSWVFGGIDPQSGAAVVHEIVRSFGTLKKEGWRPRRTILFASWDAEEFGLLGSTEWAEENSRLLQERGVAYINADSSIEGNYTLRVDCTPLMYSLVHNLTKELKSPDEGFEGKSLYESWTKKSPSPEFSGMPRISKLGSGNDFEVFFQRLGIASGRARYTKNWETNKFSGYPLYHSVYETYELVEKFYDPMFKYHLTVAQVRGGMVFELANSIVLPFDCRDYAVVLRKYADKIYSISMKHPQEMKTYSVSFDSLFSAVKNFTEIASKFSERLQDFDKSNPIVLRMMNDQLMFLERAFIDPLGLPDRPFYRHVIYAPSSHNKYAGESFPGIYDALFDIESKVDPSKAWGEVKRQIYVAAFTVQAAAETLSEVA

Q: For `O=C(c1cc(Cc2n[nH]c(=O)c3ccccc23)ccc1[18F])N1CCN(C(=O)C2CC2)CC1` [^18F-Olaparib], which “typical biodistribution of PARPi” value [1] is on record?
A: low tumor uptake and high gut uptake

Q: For `O=C([O-])CN1CCN(CC(=O)[O-])CCN(CC(=O)NCC2CCC(C(=O)N[C@@H](Cc3ccc4ccccc4c3)C(=O)NCCCC[C@H](NC(=O)N[C@@H](CCC(=O)O)C(=O)O)C(=O)O)CC2)CCN(CC(=O)[O-])CC1.[177Lu+3]` (stereo partly shown) [^177Lu-PSMA-617], which median overall survival [2] is on record?
A: 15.3 months

Q: With `CNCc1ccc(-c2[nH]c3cc(F)cc4c3c2CCNC4=O)cc1` [Ruc, Rucaparib] as the compound, how does the viability at 20 µM [3] read?
A: 30 to 50%

Q: And the viability at 20 µM ([4]; Homo sapiens, pretreated with 10 mM GSH, read-out: cell viability compared to untreated cells)?
A: 30 to 50%

Q: And the “patients with a partial response” value [5]?
A: 30-40%

Q: And the “patients with an objective response” value [5]?
A: 44%

Q: What about the “localization of Ruc fluorescence” value [6] of the same compound?
A: localized in the cell nucleus of PSMA-expressing and non-expressing cells non-selectively; also recorded: non-selective uptake in PSMA+ and PSMA- cells

Q: With `CN(Cc1ccc(-c2[nH]c3cc(F)cc4c3c2CCNC4=O)cc1)C(=O)CCCCCCC(=O)NCCCC[C@@H](NC(=O)CCC(C(=O)O)N1CCN(CC(=O)O)CCN(CC(=O)O)CCN(CC(=O)O)CC1)C(=O)N[C@H](CC(=O)O)C(=O)NCCC(=O)NC[C@H]1CC[C@H](C(=O)N[C@@H](Cc2ccc3ccccc3c2)C(=O)NCCCC[C@H](NC(=O)N[C@@H](CCC(=O)O)C(=O)O)C(=O)O)CC1` (stereo partly drawn) [Conjugate 13, DOTAGA-n-Lys(Ruc-Sub)-n-Asp-β-Ala-TXA-L-Nal-KuE] as the compound, how does the “stable (intact) after incubation in human serum” value ([7]; 2 hours) read?
A: 94%

Q: And the “intact after incubation in human serum” value ([7]; 24 hours)?
A: 89%

Q: And the IC50 [8]?
A: 0.67 ± 0.09 nM

Q: And the cytotoxic effects ([4]; 20 µM)?
A: did not show cytotoxic effects

Q: What about the “% bound of total applied dose” value [9] of the same compound?
A: 10.8 ± 2.07%

Q: And the logD [10]?
A: -2.58 ± 0.05

— patent EP4389150A1, “CONJUGATE COMPOUNDS AND THEIR USE IN CANCER TREATMENT AND DIAGNOSIS” (Technische Universität München, priority 2022, dated 2024)
